Results reported in US20250058002A1, “ELECTROCHEMICAL INHIBITION OF REDOX ACTIVE BACTERIA AND RELATED DEVICES, METHODS AND SYSTEMS” (priority 2023, published 2025).
Like-named read-outs stand apart in the source and are kept apart here.

Experiments:
[1] = tested on: PA14; test: Redox cycles over 7 days and support of survival (Table 4); type: cell-based, P. aeruginosa
From the text: (§1) Phenazines and other redox active compound in the sense of the disclosure can be further characterized by various electrical properties such as a standard electrode potential E° vs. NHE of −500 mV to 500 mV and other properties such as number of redox cycle over a certain period of time (e.g. number of days) as ability to support survival and susceptibility to reduction by enzymes and/or bacterial strains.

[2] = tested on: PA14; test: Reduction of redox-active compound by PA14 (Table 4); type: cell-based, P. aeruginosa
From the text: as §1

[3] = Midpoint potential E1/2 by voltammetry vs Ag/AgCl (3M KCl); type: physicochemical; conditions: for E1/2 (vs. Ag/AgCl (3M KCl))/mV: Example 15 table
Protocol: The purified redox-active molecule can be dissolved in aqueous solution at appropriate concentration in the presence of supporting electrolyte and buffer to select the pH of measurement. For example, the redox-active molecule can be dissolved in 10 μM-10 mM concentrations in distilled, deionized water (DDW). The supporting electrolyte can be a salt such as NaCl or KCl at 0.01-0.5 M concentrations, for example, dissolved in DDW. The buffer can be 10 mM ammonium acetate/3-(N-morpholino)propanesulfonic acid at pH 7, or phosphate-buffered saline (PBS) at pH 7.4, or sodium acetate buffer at pH 5, or di-sodium hydrogen phosphate/potassium dihydrogen phosphate at pH 9, or boric acid/citric acid/trisodium phosphate for a wide range of pH values, for example.
Voltammetric methods are then used to characterize the electrochemical behavior of the redox-active molecule in such solution, with a potentiostat such as a Gamry PC4-300, using a three-electrode setup with working electrode (glassy carbon, or platinum, or gold), counter electrode (platinum wire) and reference electrode (Ag/AgCl (3M KCl), or SCE, or NHE; values are reported relative to Ag/AgCl (3M KCl) which has potential +197 mV vs. NHE at 298K).
For example, cyclic voltammetry may be used. In a cyclic voltammetry experiment phenazines will show a peak on the cathodic sweep (denoted Epc) corresponding to the reduction of the redox molecule.
The reverse, anodic sweep will show a peak (denoted Epa) corresponding to the re-oxidation of the redox molecule. If the electrode reaction is diffusion-controlled and reversible, the cathodic and anodic peak currents will be equal in area, and the mid-point between these peaks may be taken as the formal reduction potential of the redox molecule under the experimental conditions used. This value can interchangeably be referred to as the “midpoint potential” or “mid-peak potential”, denoted E1/2.
PYO was purified from aerobic bacterial cultures and was dissolved in 0.1 M KCl aqueous solution buffered with 10 mM ammonium acetate-3-(N-morpholino)propanesulfonic acid (5 mM each, pH 7) to yield a stock solution concentration of 829 μM PYO. Electrochemical measurements were performed with a Gamry PC4-300 potentiostat. A stationary gold disk electrode (BASi) was used as the working electrode, an Ag/AgCl electrode (RE-51, BASi) as the reference, and a straight platinum wire (BASi) was the counter electrode. Scans were performed between 20 and 500 mV/s in the potential range of around E1/2 (+/−300 mV), at 298 K.
As described in en.wikipedia.org/wiki/Nernst_equation, the Nernst equation relates E1/2 measured at pH 7 to the E1/2 at a different pH by:
[formula] • where E1/2 is in V • h is the number of protons transferred in the electrochemical reaction • e is the number of electrons transferred in the electrochemical reaction

[4] = Square wave voltammograms of electrode-attached biofilms; type: physicochemical; conditions: acquired immediately after transfer to anoxic reactors
Protocol: FIG. 3: Electrochemical signal of wild type, Δphz*, and Δphz*+10 μM PYO showing PYO (E1/2=−250 mV vs Ag/AgCl) is the only redox active signal observed under these conditions and is retained by wild type biofilms. Square wave voltammograms acquired immediately after transfer to anoxic reactors.
Square Wave Voltammograms. Potential was scanned from +100 mV to −500 mV vs Ag/AgCl and in reverse with the following parameters: pulse height=50 mV, pulse width=66.6 ms, step height=−0.5 mV, and acquisition of the average current over the last 50% of each step. Square wave voltammograms were acquired immediately after transfer from oxic to anoxic conditions.

[5] = tested on: Δphz* biofilms; test: Anoxic survival (CFU) of electrode-attached phenazine-deficient biofilms at poised potential; type: cell-based, P. aeruginosa UCBPP-PA14; Δphz*; conditions: 10 μM PYO added, PYO-reductive conditions
Protocol: Electrochemical reactors and biofilm growth. Double-jacketed electrochemical reactors (Pine Instruments, 250 ml, wide center port 29/26) were used with ITO-coated 0.2 mm thick boro-aluminosilicate glass slides (Delta Technologies, 24×60 mm, Rs=7-10Ω) as working electrodes, freshly sanded graphite rods (Alfa Aesar) as counter electrodes, and Ag/AgCl in 3M KCl reference electrodes (BASi). Silver epoxy (Electron Microscopy Sciences) was used to make electrical connection between insulated wire ([…]) and working electrode and was insulated using 5 Minute® expoxy (Devcon). Working electrodes were assembled within 5 hours of use. Reactors were sterilized by autoclaving without reference or working electrodes, which were sterilized by submerging in 10% bleach for 5 minutes or 30 seconds, respectively, and rinsed in sterile water. Individual mid-log liquid cultures (OD600 0.45-0.55) were used to inoculate sterile reactors containing 140 ml of MM (described above) with 0.1% (vol/vol) for each biological replicate. Antibiotics were not added at this point. Working electrodes were poised at either open circuit, +100 mV, or −400 mV vs. Ag/AgCl (+310 mV and −190 mV vs the standard hydrogen electrode, respectively). Reactors were aerated using an aquarium pump with a 0.2 μm filter (Thermo Scientific) and heated to 31° C. using a circulating water bath (Haake A 25, Thermo Scientific). Fresh medium was exchanged every 24 hours for 5 days. After 5 days of aerobic growth, working electrode-attached biofilms were rinsed in sterile medium to remove planktonic cells and transferred to sterile reactors with fresh MM previously flushed for 2 hours with N2 ultra-high purity gas (NRL supply store). For antibiotic exposure experiments, antibiotics were added to sterile media before flushing with N2. […]
Biofilm harvesting and processing. […] SYTO-60 was excited with a 561 nm; 0.20% laser and emission was recorded from 580-700 nm. TOTO-1 was excited with a 488 nm; 0.20% laser and emission was recorded from 490 to 580 nm.

[6] = vs NHE at pH7; cited from earlier work
[7] = oxidized form; literature values (footnotes a, c, d); cited from earlier work
[8] = from Wang and Newman (2008), cited from earlier work
[9] = tested on: P. aeruginosa PA14 liquid cultures; test: Toxicity of reduced PYO to liquid-grown cells under anoxic conditions; type: cell-based; conditions: 1, 10, and 100 μM reduced PYO, 30 minutes, normalized to untreated
Protocol: FIG. 8: Toxicity of reduced PYO to liquid-grown cells. Exposure of mid-log aerobic P. aeruginosa PA14 liquid cultures to 1, 10, and 100 μM reduced PYO under anoxic conditions. Triplicate data shown normalized to untreated samples with line at mean.
Treatment of liquid cultures with reduced PYO. 100 μM PYO in MM was reduced electrochemically using a dual-chamber reactor with an cation exchange membrane (CMI-7000, Membranes International) to avoid re-oxidation of PYO at the counter electrode. […] chamber contained Ag/AgCl reference electrode, platinum mesh working electrode, and was flushed with N2; while […] chamber was oxic and contained platinum mesh counter electrode. PYO reduction was carried out by poising the working electrode at −400 mV vs. Ag/AgCl for 24 hours, past the point of 100% PYO reduction based on coulombic efficiency, and biochemical reactor was then transferred into the anaerobic chamber. Anoxic vials with pre-equilibrated MM and corresponding concentrations of reduced PYO were then treated with biochemical O2 scavenging system (10 mM glucose+375 nM glucose oxidase+750 nM catalase) for an hour before inoculation. Aerobic liquid cultures of P. aerughnosa in MM at mid-log (OD600=0.5) were spun down and resuspended in fresh media and used to inoculate assays with 10% (vol/vol). […]

Compound: Cn1c2cccc(=O)c-2nc2ccccc21 [Pyocyanin (PYO), Pyocyanin]
- Support survival? [1]: Yes
- # of Redox cycles over 7 days ([1]; over 7 days): 31
- Reduction by PA14? [2]: Yes
- E1/2 (vs. Ag/AgCl (3M KCl))/mV ([3]; pH 5): −128 mV
- E1/2 estimated vs. Ag/AgCl (3M KCl) ([3]; pH 6, estimated): −178 mV
- E1/2 (vs. Ag/AgCl (3M KCl))/mV ([3]; pH 6): −189 mV
- E1/2 vs. Ag/AgCl (3M KCl) ([3]; pH 7, 298 K, 0.1 M KCl, gold disk working electrode): −237 mV
- E1/2 vs. NHE ([3]; pH 7, 298 K, corrected to NHE by adding 197 mV): −40 mV
- E1/2 (vs. Ag/AgCl (3M KCl))/mV ([3]; pH 7): −237 mV
- E1/2 estimated by Nernst equation ([3]; pH 8, estimated from pH 7 value): −296 mV
- E1/2 (vs. Ag/AgCl (3M KCl))/mV ([3]; pH 8): −300 mV
- E1/2 vs Ag/AgCl in biofilm square wave voltammograms [4]: −250 mV
- effect of PYO addition on Δphz* biofilm CFUs (in words) ([5]; listed as PYO): sensitized under PYO-reductive conditions
- effect of PYO addition on Δphz* biofilm CFUs (in words) ([5]; listed as pyocyanin): re-sensitized
- Redox potentials E (mV) [6]: −34 mV
- E0' (vs. NHE) (mV) [7]: −40^a mV
- E1/2 (vs. Ag/AgCl (3M KCl))/mV ([8]; pH 5): −128 mV
- E1/2 (vs. Ag/AgCl (3M KCl))/mV ([8]; pH 6): −189 mV
- E1/2 (vs. Ag/AgCl (3M KCl))/mV ([8]; pH 7): −237 mV
- E1/2 (vs. Ag/AgCl (3M KCl))/mV ([8]; pH 8): −300 mV

Compound: CN1c2ccccc2Nc2c(O)cccc21 [reduced PYO]
- decrease in CFUs of liquid cultures [9]: two- to threefold decrease in CFUs
